Patent US12649733B2, “3,6-diamino-pyridazin-3-yl derivatives, pharmaceutical compositions containing them and their uses as pro-apoptotic agents” (LES LABORATOIRES SERVIER, priority 2019, dated 2026)

Columns and labels:
[1] = target: T1, Bcl-xL protein (Homo sapiens, UniProt Q07817, N197C); experiment: Fluorescence quenching assay (PUMA peptide displacement); assay type: binding; conditions: 1 nM protein, 400 nM peptide, 2 hours at 23° C.; KI determined from IC50
T1 construct: (2-197)[N197C]; His-His (two His8 stretches joined by a Gly/Ala/Ser/Thr linker)
Text: Fluorescence quenching assay measures the change in fluorescence intensity of C-terminally Cy5-labeled BCL-xL protein, His-His-(EK)-hs ? (2-197)[N197C] (UniProtKB® primary accession number Q07817-1) having an amino acid sequence (SEQ ID:03): [[…] […] […] […] […]] which is linked in C-terminal region to the amino acid X which corresponds to a cysteine labeled on the sulfur with Sulfo-Cyanine5 from Lumiprobe GmbH catalogue number 13380, upon binding of a C-terminally labeled peptide derived from PUMA (UniProtKB® primary accession number Q9BXH1) having an aminoacid sequence (SEQ ID:04): [[…]] which is linked in C-terminal region to the amino acid X′ where X′ is cysteine labeled on the sulfur with TQ5WS from AAT Bioquest catalogue number 2079.
The addition of a compound which binds competitively to the same site as the peptide will result in an increase in the fluorescence intensity of the protein due to displacement of the fluorescence quencher.
An 11-point serial dilution of each compound was prepared in DMSO the final buffer conditions were 10 mM 4-(2-hydroxyethyl)-1-piperazineethanesulfonic acid [HEPES], 150 mM NaCl, 0.05% Tween 20, pH 7.4 and 5% DMSO. The final protein concentration in the assay was 1 nM with the peptide present at 400 nM. The experiments were incubated for 2 hours at 23° C. before fluorescence intensity was measured on a Biotek SynergyNeo plate reader (Excitation 620 nm, emission 680 nm). […] The KI values were determined from the IC50 values according to Cer et al, Nucleic Acids Res, 2009, Jul. 1: 37(WebServer issue): W441-W445.

[2] = tested on: MOLT-4 cells; experiment: MOLT-4 cell viability, MTT assay; assay type: cell-based; conditions: Homo sapiens, MOLT-4, 48 h, 48 h exposure
Method in brief: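 Viability read by MTT reduction (OD 540 nm after overnight SDS/HCl lysis) after 48 h compound treatment of cells in RPMI 1640/10% FBS. Triplicates at nine concentrations, 3.16-fold apart; four-parameter curve fitting yields IC50.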

T1 sequence (Q07817 2-197 N197C): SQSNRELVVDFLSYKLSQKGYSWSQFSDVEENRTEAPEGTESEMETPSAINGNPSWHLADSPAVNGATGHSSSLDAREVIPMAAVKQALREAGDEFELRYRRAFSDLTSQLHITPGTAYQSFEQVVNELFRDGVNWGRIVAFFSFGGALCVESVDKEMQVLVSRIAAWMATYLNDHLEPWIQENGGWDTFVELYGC

CNCC#Cc1ccc(OCCCc2sc(N(C)c3cc(C(F)(F)F)c(Nc4nc5ccccc5s4)nn3)nc2C(=O)O)c(F)c1 [Example 209, 2-[[6-(1,3-Benzothiazol-2-ylamino)-5-(trifluoromethyl)pyridazin-3-yl]-methyl-amino]-5-[3-[2-fluoro-4-[3-(methylamino)prop-1-ynyl]phenoxy]propyl]thiazole-4-carboxylic acid]
Ki [1]: 23 pM

CNCC#Cc1ccc(OCCCc2sc(N(CCCC[N+](C)(C)C)c3cc(C)c(Nc4nc5ccccc5s4)nn3)nc2C(=O)O)c(F)c1 [Example 232, 2-[[6-(1,3-Benzothiazol-2-ylamino)-5-methyl-pyridazin-3-yl]-[4-(trimethylammonio)butyl]amino]-5-[3-[2-fluoro-4-[3-(methylamino)prop-1-ynyl]phenoxy]propyl]thiazole-4-carboxylate]
Ki [1]: 1.7 pM

Cc1cc(N(CCCC(=O)O)c2nc(C(=O)O)c(CCCOc3ccc(C#CCN(C)C)cc3F)s2)nnc1Nc1nc2ccccc2s1 [Example 238, 2-({6-[(1,3-Benzothiazol-2-yl)amino]-5-methylpyridazin-3-yl}(3-carboxypropyl)amino)-5-(3-{4-[3-(dimethylamino)prop-1-yn-1-yl]-2-fluorophenoxy}propyl)-1,3-thiazole-4-carboxylic acid]
IC50 [2]: 149000 pM | Ki [1]: 4.5 pM

Cc1cc(N(CCCCNC2CCN(C)CC2)c2nc(C(=O)O)c(CCCOc3ccc(C#CCN(C)C)cc3F)s2)nnc1Nc1nc2ccccc2s1 [Example 181, 2-[[6-(1,3-Benzothiazol-2-ylamino)-5-methyl-pyridazin-3-yl]-[4-[(1-methyl-4-piperidyl)amino]butyl]amino]-5-[3-[4-[3-(dimethylamino)prop-1-ynyl]-2-fluoro-phenoxy]propyl]thiazole-4-carboxylic acid]
Ki [1]: 4.3 pM

Cc1cc(N(CCCCC[N+](C)(C)CCO)c2nc(C(=O)[O-])c(CCCOc3ccc(C#CCN(C)C)cc3F)s2)nnc1Nc1nc2ccccc2s1 [Example 226, 2-[[6-(1,3-Benzothiazol-2-ylamino)-5-methyl-pyridazin-3-yl]-[5-[2-hydroxyethyl(dimethyl)ammonio]pentyl]amino]-5-[3-[4-[3-(dimethylamino)prop-1-ynyl]-2-fluoro-phenoxy]propyl]thiazole-4-carboxylate]
IC50 [2]: 752000 pM | Ki [1]: 5.3 pM

CNCC#Cc1ccc(OCCCc2sc(N(CCCP(=O)(O)O)c3cc(C)c(Nc4nc5ccccc5s4)nn3)nc2C(=O)O)c(F)c1 [Example 237, 2-[[6-(1,3-Benzothiazol-2-ylamino)-5-methyl-pyridazin-3-yl]-(3-phosphonopropyl)amino]-5-[3-[2-fluoro-4-[3-(methylamino)prop-1-ynyl]phenoxy]propyl]thiazole-4-carboxylic acid]
IC50 [2]: 750000 pM | Ki [1]: 1.8 pM

Cc1cc(N(CCCP(=O)(O)O)c2nc(C(=O)O)c(CCCOc3ccc(C#CCN(C)C)cc3F)s2)nnc1Nc1nc2ccccc2s1 [Example 239, 2-({6-[(1,3-Benzothiazol-2-yl)amino]-5-methylpyridazin-3-yl}(3-phosphonopropyl)amino)-5-(3-{4-[3-(dimethylamino)prop-1-yn-1-yl]-2-fluorophenoxy}propyl)-1,3-thiazole-4-carboxylic acid]
IC50 [2]: 314000 pM | Ki [1]: 2.7 pM

C#CCCCN(c1cc(C)c(Nc2nc3ccccc3s2)nn1)c1nc(C(=O)O)c(CCCOc2ccc(C#CCNC)cc2F)s1 [Example 253, 2-[{6-[(1,3-benzothiazol-2-yl)amino]-5-methylpyridazin-3-yl}(pent-4-yn-1-yl)amino]-5-(3-{2-fluoro-4-[3-(methylamino)prop-1-yn-1-yl]phenoxy}propyl)-1,3-thiazole-4-carboxylic acid]
IC50 [2]: 31700 pM | Ki [1]: 70 pM

Cc1cc(N(C)c2ccc(-c3cnn(CC45CC6(C)CC(C)(C4)CC(OCCNCCCO)(C6)C5)c3C)c(C(=O)O)n2)nnc1Nc1nc2ccccc2s1 [Example 268, 6-[[6-(1,3-benzothiazol-2-ylamino)-5-methyl-pyridazin-3-yl]-methyl-amino]-3-[1-[[3-[2-(3-hydroxypropylamino)ethoxy]-5,7-dimethyl-1-adamantyl]methyl]-5-methyl-pyrazol-4-yl]pyridine-2-carboxylic acid]
IC50 [2]: 255 pM | Ki [1]: 2.3 pM

Cc1cc(N(CCCCNCCN2CCCCC2)c2nc(C(=O)O)c(CCCOc3ccc(C#CCN(C)C)cc3F)s2)nnc1Nc1nc2ccccc2s1 [Example 179, 2-[[6-(1,3-Benzothiazol-2-ylamino)-5-methyl-pyridazin-3-yl]-[4-[2-(1-piperidyl)ethylamino]butyl]amino]-5-[3-[4-[3-(dimethylamino)prop-1-ynyl]-2-fluoro-phenoxy]propyl]thiazole-4-carboxylic acid]
Ki [1]: 6.8 pM

Cc1cc(N(CCCCC(=O)O)c2nc(C(=O)O)c(CCCOc3ccc(C#CCN(C)C)cc3F)s2)nnc1Nc1nc2ccccc2s1 [Example 243, 2-({6-[(1,3-Benzothiazol-2-yl)amino]-5-methylpyridazin-3-yl}(4-carboxybutyl)amino)-5-(3-{4-[3-(dimethylamino)prop-1-yn-1-yl]-2-fluorophenoxy}propyl)-1,3-thiazole-4-carboxylic acid]
IC50 [2]: 112000 pM | Ki [1]: 5 pM

Cc1cc(N(C)c2ccc(-c3cnn(CC45CC6(C)CC(C)(C4)CC(OCCNCC[C@H](O)CO)(C6)C5)c3C)c(C(=O)O)n2)nnc1Nc1nc2ccccc2s1 [Example 247, 6-[{6-[(1,3-benzothiazol-2-yl)amino]-5-methylpyridazin-3-yl}(methyl)amino]-3-(1-{[3-(2-{[(3S)-3,4-dihydroxybutyl]amino}ethoxy)-5,7-dimethyladamantan-1-yl]methyl}-5-methyl-1H-pyrazol-4-yl)pyridine-2-carboxylic acid]
IC50 [2]: 2810 pM | Ki [1]: 1.2 pM

Cc1cc(N(CCCCC[N+](C)(C)CC(=O)O)c2nc(C(=O)[O-])c(CCCOc3ccc(C#CCN(C)C)cc3F)s2)nnc1Nc1nc2ccccc2s1 [Example 227, 2-[[6-(1,3-Benzothiazol-2-ylamino)-5-methyl-pyridazin-3-yl]-[5-[carboxymethyl(dimethyl)ammonio]pentyl]amino]-5-[3-[4-[3-(dimethylamino)prop-1-ynyl]-2-fluoro-phenoxy]propyl]thiazole-4-carboxylate]
IC50 [2]: 802000 pM | Ki [1]: 3.5 pM

Cc1cc(N(CCCCNCCN2CCOCC2)c2nc(C(=O)O)c(CCCOc3ccc(C#CCN(C)C)cc3F)s2)nnc1Nc1nc2ccccc2s1 [Example 180, 2-[[6-(1,3-Benzothiazol-2-ylamino)-5-methyl-pyridazin-3-yl]-[4-(2-morpholinoethylamino)butyl]amino]-5-[3-[4-[3-(dimethylamino)prop-1-ynyl]-2-fluoro-phenoxy]propyl]thiazole-4-carboxylic acid]
Ki [1]: 5.2 pM

CNCCN(C)CCCCN(c1cc(C)c(Nc2nc3ccccc3s2)nn1)c1nc(C(=O)O)c(CCCOc2ccc(C#CCN(C)C)cc2F)s1 [Example 178, 2-[[6-(1,3-Benzothiazol-2-ylamino)-5-methyl-pyridazin-3-yl]-[4-[methyl-[2-(methylamino)ethyl]amino]butyl]amino]-5-[3-[4-[3-(dimethylamino)prop-1-ynyl]-2-fluoro-phenoxy]propyl]thiazole-4-carboxylic acid]
Ki [1]: 7.4 pM
